Reference: ChEMBL document CHEMBL1201861, “Genomics of Drug Sensitity in Cancer screening data, Wellcome Trust Sanger Institute”

Assays:
Assay in all cases: cells
[1] = system: SK-LMS-1; format: functional, cell-based, Homo sapiens; details: Homo sapiens, SK-LMS-1;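 note: growth inhibition of human SK-LMS-1 cells, read out with a cell viability assay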
Description: SANGER: Inhibition of human SK-LMS-1 cell growth in a cell viability assay.

[2] = system: NCI-H1581; format: functional, cell-based, Homo sapiens; details: Homo sapiens, NCI-H1581;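 note: cell growth inhibition read out by a viability assay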
Description: SANGER: Inhibition of human NCI-H1581 cell growth in a cell viability assay.

[3] = system: EW-1; format: functional, cell-based, Homo sapiens; details: Homo sapiens, EW-1;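 note: growth inhibition of the human EW-1 cell line, read out by a cell viability assay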
Description: SANGER: Inhibition of human EW-1 cell growth in a cell viability assay.

[4] = system: KINGS-1; format: functional, cell-based, Homo sapiens; details: Homo sapiens, KINGS-1;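 note: cell viability assay measuring suppression of KINGS-1 cell growth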
Description: SANGER: Inhibition of human KINGS-1 cell growth in a cell viability assay.

[5] = system: TE-6; format: functional, cell-based, Homo sapiens; details: Homo sapiens, TE-6;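 note: growth inhibition of TE-6 cells, read out with a cell viability assay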
Description: SANGER: Inhibition of human TE-6 cell growth in a cell viability assay.

[6] = system: HD-MY-Z; format: functional, cell-based, Homo sapiens; details: Homo sapiens, HD-MY-Z;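 note: growth inhibition of HD-MY-Z cells, read out with a cell viability assay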
Description: SANGER: Inhibition of human HD-MY-Z cell growth in a cell viability assay.

[7] = system: NMC-G1; format: functional, cell-based, Homo sapiens; details: Homo sapiens, NMC-G1;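 note: growth inhibition of the NMC-G1 cell line, measured with a cell viability read-out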
Description: SANGER: Inhibition of human NMC-G1 cell growth in a cell viability assay.

[8] = system: NCI-H2126; format: functional, cell-based, Homo sapiens; details: Homo sapiens, NCI-H2126;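 note: growth inhibition of the cancer cell line, determined with a cell viability readout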
Description: SANGER: Inhibition of human NCI-H2126 cell growth in a cell viability assay.

[9] = system: SK-UT-1; format: functional, cell-based, Homo sapiens; details: Homo sapiens, SK-UT-1;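 note: growth inhibition of SK-UT-1 cells, measured by a cell viability assay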
Description: SANGER: Inhibition of human SK-UT-1 cell growth in a cell viability assay.

[10] = system: RPMI-8226; format: functional, cell-based, Homo sapiens; details: Homo sapiens, RPMI-8226
Description: SANGER: Inhibition of human RPMI-8226 cell growth in a cell viability assay.

[11] = system: LB2518-MEL; format: functional, cell-based; details: Homo sapiens;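 note: growth inhibition of human LB2518-MEL cells, measured with a cell viability assay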
Description: SANGER: Inhibition of human LB2518-MEL cell growth in a cell viability assay.

[12] = system: HL-60; format: functional, cell-based, Homo sapiens; details: Homo sapiens, HL-60;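 note: growth inhibition of human HL-60 cells, read out with a cell viability assay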
Description: SANGER: Inhibition of human HL-60 cell growth in a cell viability assay.

[13] = system: SW982; format: functional, cell-based; details: Homo sapiens;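 note: growth inhibition of SW982 cells, read out with a cell viability assay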
Description: SANGER: Inhibition of human SW982 cell growth in a cell viability assay.

[14] = system: OMC-1; format: functional, cell-based, Homo sapiens; details: Homo sapiens, OMC-1;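 note: growth inhibition of the OMC-1 cell line, measured by a cell viability assay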
Description: SANGER: Inhibition of human OMC-1 cell growth in a cell viability assay.

[15] = system: KURAMOCHI; format: functional, cell-based, Homo sapiens; details: Homo sapiens, KURAMOCHI;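 note: growth inhibition of KURAMOCHI cells, read out with a cell viability assay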
Description: SANGER: Inhibition of human KURAMOCHI cell growth in a cell viability assay.

[16] = system: MN-60; format: functional, cell-based, Homo sapiens; details: Homo sapiens, MN-60;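 note: growth inhibition of the MN-60 cell line, determined with a cell viability assay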
Description: SANGER: Inhibition of human MN-60 cell growth in a cell viability assay.

[17] = system: GOTO; format: functional, cell-based, Homo sapiens; details: Homo sapiens, GOTO;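 note: growth inhibition of GOTO cells, read out by a cell viability assay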
Description: SANGER: Inhibition of human GOTO cell growth in a cell viability assay.

[18] = system: LB996-RCC; format: functional, cell-based, Homo sapiens; details: Homo sapiens, LB996-RCC
Description: SANGER: Inhibition of human LB996-RCC cell growth in a cell viability assay.

[19] = system: TGW; format: functional, cell-based, Homo sapiens; details: Homo sapiens, TGW;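 note: growth inhibition of human TGW cells, read out with a cell viability assay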
Description: SANGER: Inhibition of human TGW cell growth in a cell viability assay.

[20] = system: DSH1; format: functional, cell-based; details: Homo sapiens;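 note: growth inhibition of human DSH1 cells, measured with a cell viability readout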
Description: SANGER: Inhibition of human DSH1 cell growth in a cell viability assay.

[21] = system: NOMO-1; format: functional, cell-based, Homo sapiens; details: Homo sapiens, NOMO-1;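 note: growth inhibition of human NOMO-1 cells measured by a cell viability assay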
Description: SANGER: Inhibition of human NOMO-1 cell growth in a cell viability assay.

[22] = system: EKVX; format: functional, cell-based, Homo sapiens; details: Homo sapiens, EKVX;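 note: growth inhibition of human EKVX cells, read out with a cell viability assay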
Description: SANGER: Inhibition of human EKVX cell growth in a cell viability assay.

[23] = system: NCI-H747; format: functional, cell-based, Homo sapiens; details: Homo sapiens, NCI-H747;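 note: growth inhibition of human NCI-H747 cells, read out by a cell viability assay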
Description: SANGER: Inhibition of human NCI-H747 cell growth in a cell viability assay.

[24] = system: GCIY; format: functional, cell-based, Homo sapiens; details: Homo sapiens, GCIY;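 note: growth inhibition of the human GCIY cell line, read out by a cell viability assay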
Description: SANGER: Inhibition of human GCIY cell growth in a cell viability assay.

[25] = system: CW-2; format: functional, cell-based, Homo sapiens; details: Homo sapiens, CW-2;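 note: growth inhibition of CW-2 cells, read out by a cell viability assay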
Description: SANGER: Inhibition of human CW-2 cell growth in a cell viability assay.

[26] = system: MHH-PREB-1; format: functional, cell-based, Homo sapiens; details: Homo sapiens, MHH-PREB-1;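 note: cell viability assay measuring inhibition of proliferation of human MHH-PREB-1 cells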
Description: SANGER: Inhibition of human MHH-PREB-1 cell growth in a cell viability assay.

[27] = system: KARPAS-299; format: functional, cell-based, Homo sapiens; details: Homo sapiens, KARPAS-299
Description: SANGER: Inhibition of human KARPAS-299 cell growth in a cell viability assay.

[28] = system: NB13; format: functional, cell-based, Homo sapiens; details: Homo sapiens, NB13;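 note: cell viability readout measuring growth inhibition of human NB13 cells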
Description: SANGER: Inhibition of human NB13 cell growth in a cell viability assay.

[29] = system: HT-144; format: functional, cell-based, Homo sapiens; details: Homo sapiens, HT-144
Description: SANGER: Inhibition of human HT-144 cell growth in a cell viability assay.

[30] = system: AM-38; format: functional, cell-based, Homo sapiens; details: Homo sapiens, AM-38;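 note: growth inhibition of AM-38 cells of human origin, read out by a cell viability assay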
Description: SANGER: Inhibition of human AM-38 cell growth in a cell viability assay.

[31] = system: Calu-6; format: functional, cell-based, Homo sapiens; details: Homo sapiens, Calu-6;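 note: growth of human Calu-6 cells, read out by a cell viability assay, IC50 marking inhibition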
Description: SANGER: Inhibition of human Calu-6 cell growth in a cell viability assay.

[32] = system: LB2241-RCC; format: functional, cell-based, Homo sapiens; details: Homo sapiens, LB2241-RCC;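 note: cell viability assay measuring how strongly the cultured human renal carcinoma line is prevented from growing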
Description: SANGER: Inhibition of human LB2241-RCC cell growth in a cell viability assay.

[33] = system: NCI-H1304; format: functional, cell-based, Homo sapiens; details: Homo sapiens, NCI-H1304;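 note: growth inhibition of the cancer cell line, measured in a cell viability assay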
Description: SANGER: Inhibition of human NCI-H1304 cell growth in a cell viability assay.

[34] = system: HOP-62; format: functional, cell-based, Homo sapiens; details: Homo sapiens, HOP-62;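 note: cell growth inhibition determined with a viability assay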
Description: SANGER: Inhibition of human HOP-62 cell growth in a cell viability assay.

[35] = system: OS-RC-2; format: functional, cell-based, Homo sapiens; details: Homo sapiens, OS-RC-2;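 note: growth inhibition of human OS-RC-2 cells, measured by a cell viability assay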
Description: SANGER: Inhibition of human OS-RC-2 cell growth in a cell viability assay.

[36] = system: A3-KAW; format: functional, cell-based, Homo sapiens; details: Homo sapiens, A3-KAW;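 note: growth inhibition of human A3-KAW cells, read out with a cell viability assay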
Description: SANGER: Inhibition of human A3-KAW cell growth in a cell viability assay.

[37] = system: NCI-H446; format: functional, cell-based, Homo sapiens; details: Homo sapiens, NCI-H446;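 note: growth inhibition of NCI-H446 cells determined by a cell viability assay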
Description: SANGER: Inhibition of human NCI-H446 cell growth in a cell viability assay.

[38] = system: COLO-320-HSR; format: functional, cell-based, Homo sapiens; details: Homo sapiens, COLO-320-HSR;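 note: growth inhibition of COLO-320-HSR cells, determined with a cell viability assay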
Description: SANGER: Inhibition of human COLO-320-HSR cell growth in a cell viability assay.

[39] = system: NCI-H1838; format: functional, cell-based, Homo sapiens; details: Homo sapiens, NCI-H1838;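 note: growth inhibition of NCI-H1838 cells, determined with a cell viability readout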
Description: SANGER: Inhibition of human NCI-H1838 cell growth in a cell viability assay.

[40] = system: NKM-1; format: functional, cell-based, Homo sapiens; details: Homo sapiens, NKM-1;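 note: growth inhibition of NKM-1 cells, read out with a cell viability assay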
Description: SANGER: Inhibition of human NKM-1 cell growth in a cell viability assay.

[41] = system: D-502MG; format: functional, cell-based, Homo sapiens; details: Homo sapiens, D-502MG
Description: SANGER: Inhibition of human D-502MG cell growth in a cell viability assay.

[42] = system: LNCaP-Clone-FGC; format: functional, cell-based, Homo sapiens; details: Homo sapiens, LNCaP-Clone-FGC
Description: SANGER: Inhibition of human LNCaP-Clone-FGC cell growth in a cell viability assay.

[43] = system: GT3TKB; format: functional, cell-based, Homo sapiens; details: Homo sapiens, GT3TKB;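 note: growth inhibition of the cell line, read out with a cell viability assay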
Description: SANGER: Inhibition of human GT3TKB cell growth in a cell viability assay.

[44] = system: MLMA; format: functional, cell-based, Homo sapiens; details: Homo sapiens, MLMA;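 note: growth inhibition of MLMA cells (human), determined through a cell viability readout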
Description: SANGER: Inhibition of human MLMA cell growth in a cell viability assay.

[45] = system: HCE-4; format: functional, cell-based; details: Homo sapiens;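 note: cell viability assay measuring inhibition of growth in the human HCE-4 cell line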
Description: SANGER: Inhibition of human HCE-4 cell growth in a cell viability assay.

[46] = system: TE-1; format: functional, cell-based, Homo sapiens; details: Homo sapiens, TE-1;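 note: growth inhibition of the human TE-1 cell line, read out with a cell viability assay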
Description: SANGER: Inhibition of human TE-1 cell growth in a cell viability assay.

[47] = system: KS-1; format: functional, cell-based; details: Homo sapiens;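 note: growth inhibition of KS-1 cells, read out with a cell viability assay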
Description: SANGER: Inhibition of human KS-1 cell growth in a cell viability assay.

[48] = system: A253 cell line; format: functional, cell-based, Homo sapiens; details: Homo sapiens, A253;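 note: growth inhibition of A253 cells, read out with a cell viability assay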
Description: SANGER: Inhibition of human A253 cell growth in a cell viability assay.

[49] = system: ALL-PO; format: functional, cell-based, Homo sapiens; details: Homo sapiens, ALL-PO;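 note: growth inhibition of ALL-PO cells, read out by a cell viability assay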
Description: SANGER: Inhibition of human ALL-PO cell growth in a cell viability assay.

[50] = system: KM-H2; format: functional, cell-based, Homo sapiens; details: Homo sapiens, KM-H2;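 note: growth inhibition of KM-H2 cells, read out by a cell viability assay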
Description: SANGER: Inhibition of human KM-H2 cell growth in a cell viability assay.

`COc1cc(N2CCC(N3CCN(C)CC3)CC2)ccc1Nc1ncc(Cl)c(Nc2ccccc2S(=O)(=O)C(C)C)n1` [TAE-684] gave an IC50 [1] of 1.16 µM, an IC50 [2] of over 2 µM and an IC50 [3] of 0.103 µM. For the same molecule, the IC50 [4] was over 2 µM, the IC50 [5] was over 2 µM and the IC50 [6] was over 2 µM. For the same molecule, the IC50 [7] was 0.832 µM, the IC50 [8] was over 2 µM and the IC50 [9] was over 2 µM. It also gave an IC50 [10] of 0.635 µM, an IC50 [11] of over 2 µM and an IC50 [12] of 0.481 µM. The IC50 [13] was 0.165 µM, the IC50 [14] was over 2 µM and the IC50 [15] was 1.7 µM. For the same molecule, the IC50 [16] was over 2 µM, the IC50 [17] was over 2 µM and the IC50 [18] was 0.694 µM. For the same molecule, the IC50 [19] was 0.859 µM, the IC50 [20] was over 2 µM and the IC50 [21] was over 2 µM. It also gave an IC50 [22] of over 2 µM, an IC50 [23] of 0.499 µM and an IC50 [24] of 0.955 µM. For the same molecule, the IC50 [25] was over 2 µM, the IC50 [26] was over 2 µM and the IC50 [27] was 0.0238 µM. For the same molecule, the IC50 [28] was 1.37 µM, the IC50 [29] was 1.63 µM and the IC50 [30] was over 2 µM. The IC50 [31] was over 2 µM, the IC50 [32] was 0.988 µM and the IC50 [33] was 1.13 µM. It also gave an IC50 [34] of 0.65 µM, an IC50 [35] of over 2 µM and an IC50 [36] of over 2 µM. The IC50 [37] was over 2 µM, the IC50 [38] was 0.198 µM and the IC50 [39] was over 2 µM. For the same molecule, the IC50 [40] was 1.69 µM, the IC50 [41] was over 2 µM and the IC50 [42] was over 2 µM. It also gave an IC50 [43] of over 2 µM, an IC50 [44] of over 2 µM and an IC50 [45] of 1.61 µM. It also gave an IC50 [46] of 0.691 µM, an IC50 [47] of 0.193 µM and an IC50 [48] of over 2 µM. It also gave an IC50 [49] of 0.245 µM and an IC50 [50] of over 2 µM.
Work on `Cc1cc(N2CCOCC2)cc2[nH]c(-c3c(NC[C@@H](O)c4cccc(Cl)c4)cc[nH]c3=O)nc12` yielded an IC50 [1] of 4.81 µM, an IC50 [2] of over 5.12 µM and an IC50 [3] of 0.173 µM. It also gave an IC50 [4] of over 5.12 µM, an IC50 [5] of over 5.12 µM and an IC50 [6] of over 5.12 µM. The IC50 [7] was 4.61 µM, the IC50 [8] was 3.98 µM and the IC50 [9] was over 5.12 µM. For the same molecule, the IC50 [10] was over 5.12 µM, the IC50 [11] was over 5.12 µM and the IC50 [12] was 0.286 µM. For the same molecule, the IC50 [13] was 0.718 µM, the IC50 [14] was over 5.12 µM and the IC50 [15] was 4 µM. The IC50 [16] was over 5.12 µM, the IC50 [17] was over 5.12 µM and the IC50 [18] was 0.816 µM. For the same molecule, the IC50 [19] was 0.683 µM, the IC50 [20] was over 5.12 µM and the IC50 [21] was over 5.12 µM. For the same molecule, the IC50 [22] was 2.51 µM, the IC50 [23] was 0.68 µM and the IC50 [24] was 0.404 µM. It also gave an IC50 [25] of over 5.12 µM, an IC50 [26] of over 5.12 µM and an IC50 [27] of 3.85 µM. It also gave an IC50 [28] of over 5.12 µM, an IC50 [29] of 1.82 µM and an IC50 [30] of over 5.12 µM. The IC50 [31] was over 5.12 µM, the IC50 [32] was over 5.12 µM and the IC50 [33] was over 5.12 µM. The IC50 [34] was 0.936 µM, the IC50 [35] was 1.46 µM and the IC50 [36] was 1.93 µM. The IC50 [37] was over 5.12 µM, the IC50 [38] was 0.934 µM and the IC50 [39] was over 5.12 µM. For the same molecule, the IC50 [40] was over 5.12 µM, the IC50 [41] was over 5.12 µM and the IC50 [42] was over 5.12 µM. It also gave an IC50 [43] of over 5.12 µM, an IC50 [44] of 2.01 µM and an IC50 [45] of over 5.12 µM. The IC50 [46] was 0.754 µM, the IC50 [47] was 0.102 µM and the IC50 [48] was over 5.12 µM. It also gave an IC50 [49] of 0.373 µM and an IC50 [50] of over 5.12 µM.
Work on `COc1ccc(N(C(=O)Oc2c(C)cccc2C)c2ccnc(Nc3ccc(N4CCN(C)CC4)cc3)n2)c(OC)c1` yielded an IC50 [1] of over 5.12 µM, an IC50 [2] of over 5.12 µM and an IC50 [3] of over 5.12 µM. It also gave an IC50 [4] of 1.97 µM, an IC50 [5] of over 5.12 µM and an IC50 [6] of over 5.12 µM. It also gave an IC50 [7] of over 5.12 µM, an IC50 [8] of over 5.12 µM and an IC50 [9] of over 5.12 µM. The IC50 [10] was over 5.12 µM, the IC50 [11] was 0.0467 µM and the IC50 [12] was over 5.12 µM. The IC50 [13] was 0.858 µM, the IC50 [14] was over 5.12 µM and the IC50 [15] was 2.24 µM. The IC50 [16] was over 5.12 µM, the IC50 [17] was over 5.12 µM and the IC50 [18] was 0.0567 µM. For the same molecule, the IC50 [19] was over 5.12 µM, the IC50 [20] was over 5.12 µM and the IC50 [21] was over 5.12 µM. It also gave an IC50 [22] of over 5.12 µM, an IC50 [23] of over 5.12 µM and an IC50 [24] of 1.23 µM. It also gave an IC50 [25] of over 5.12 µM, an IC50 [26] of over 5.12 µM and an IC50 [27] of over 5.12 µM. The IC50 [28] was over 5.12 µM, the IC50 [29] was 1.45 µM and the IC50 [30] was over 5.12 µM. The IC50 [31] was over 5.12 µM, the IC50 [32] was over 5.12 µM and the IC50 [33] was over 5.12 µM. For the same molecule, the IC50 [34] was 0.916 µM, the IC50 [35] was 0.35 µM and the IC50 [36] was over 5.12 µM. For the same molecule, the IC50 [37] was over 5.12 µM, the IC50 [38] was over 5.12 µM and the IC50 [39] was over 5.12 µM. The IC50 [40] was over 5.12 µM, the IC50 [41] was over 5.12 µM and the IC50 [42] was over 5.12 µM. For the same molecule, the IC50 [43] was over 5.12 µM, the IC50 [44] was 1.92 µM and the IC50 [45] was over 5.12 µM. It also gave an IC50 [46] of over 5.12 µM, an IC50 [47] of 0.0776 µM and an IC50 [48] of over 5.12 µM. It also gave an IC50 [49] of over 5.12 µM and an IC50 [50] of over 5.12 µM.
